In patent US20230287003A1, “BCL6 INHIBITORS” (Cancer Research Technology Limited, priority 2018, published 2023):

The molecules below were run against human BCL6 BTB domain (Trx-6×His-BCL6) / BCOR-AF633 peptide (Homo sapiens (Human), UniProt P41182) (assay: HTRF assay). Details: 1 nM Trx-6×His-BCL6, 300 nM BCOR-AF633 peptide, 2 hours incubation.
Type: binding
Description: The % inhibition at each concentration was calculated by normalising FRET ratio to the appropriate high (DMSO with all reagents) and low (DMSO without BCL6) controls.
For `C[C@@H]1C[C@H](O)CN(c2ncc(Cl)c(Nc3ccc4c(c3)c3c(c(=O)n4C)OCC(F)(F)[C@H](C4CC4)N3)n2)C1` (single isomer, unassigned) [Example 13e, (S)-10-((5-chloro-2-((3S,5R)-3-hydroxy-5-methylpiperidin-1-yl)pyrimidin-4-yl)amino)-2-cyclopropyl-3,3-difluoro-7-methyl-1,2,3,4-tetrahydro-[1,4]oxazepino[2,3-c]quinolin-6(7H)-one or (S)-10-((5-chloro-2-((3R,5S)-3-hydroxy-5-methylpiperidin-1-yl)pyrimidin-4-yl)amino)-2-cyclopropyl-3,3-difluoro-7-methyl-1,2,3,4-tetrahydro-[1,4]oxazepino[2,3-c]quinolin-6(7H)-one], the “HTRF avg pIC50 (1 nM)” value was 8.60. `Cn1c(=O)c2c(c3cc(Nc4nc(N5CCC(F)(F)CC5)ncc4Cl)ccc31)N[C@@H](C1CC1)C(F)(F)CO2` [Example 12n, (S)-10-((5-chloro-2-(4,4-difluoropiperidin-1-yl)pyrimidin-4-yl)amino)-2-cyclopropyl-3,3-difluoro-7-methyl-1,2,3,4-tetrahydro-[1,4]oxazepino[2,3-c]quinolin-6(7H)-one] was tested, and the “HTRF avg pIC50 (1 nM)” value was 7.94. For `C[C@H]1CN(c2ncc(Cl)c(Nc3ccc4c(c3)c3c(c(=O)n4C)OCC(F)(F)[C@H](C4CC4)N3)n2)CCO1` [Example 12t, (S)-10-((5-chloro-2-((S)-2-methylmorpholino)pyrimidin-4-yl)amino)-2-cyclopropyl-3,3-difluoro-7-methyl-1,2,3,4-tetrahydro-[1,4]oxazepino[2,3-c]quinolin-6(7H)-one], the “HTRF avg pIC50 (1 nM)” value was 8.46. In the case of `Cn1c(=O)c2c(c3cc(Nc4nc(N5C6CCC5COC6)ncc4F)ccc31)N[C@@H](C1CC1)C(F)(F)CO2` [Example 13j, (S)-10-((2-(3-oxa-8-azabicyclo[3.2.1]octan-8-yl)-5-fluoropyrimidin-4-yl)amino)-2-cyclopropyl-3,3-difluoro-7-methyl-1,2,3,4-tetrahydro-[1,4]oxazepino[2,3-c]quinolin-6(7H)-one], the “HTRF avg pIC50 (1 nM)” value is reported as 8.60. In the case of `C[C@@H]1C[C@H](C)CN(c2ncc(Cl)c(Nc3ccc4c(c3)c3c(c(=O)n4C)C(=O)OC[C@H](C4CC4)N3)n2)C1` [Example 8l, (S)-10-((5-chloro-2-((3R,5S)-3,5-dimethylpiperidin-1-yl)pyrimidin-4-yl)amino)-2-cyclopropyl-7-methyl-2,3-dihydro-[1,4]oxazepino[6,5-c]quinoline-5,6(1H,7H)-dione], the “HTRF avg pIC50 (1 nM)” value is reported as 6.36. For `C[C@H]1COC(=O)c2c(c3cc(Nc4ccnc(Cl)c4C#N)ccc3n(C)c2=O)N1` [Example 6a, (S)-2-chloro-4-((2,7-dimethyl-5,6-dioxo-1,2,3,5,6,7-hexahydro-[1,4]oxazepino[6,5-c]quinolin-10-yl)amino)nicotinonitrile], the “HTRF avg pIC50 (1 nM)” value was 7.01. For `Cn1c(=O)c2c(c3cc(Nc4nc(N5CCN(CCC#N)CC5)ncc4Cl)ccc31)N[C@@H](C1CC1)C(F)(F)CO2` [Example 13f, (S)-3-(4-(5-chloro-4-((2-cyclopropyl-3,3-difluoro-7-methyl-6-oxo-1,2,3,4,6,7-hexahydro-[1,4]oxazepino[2,3-c]quinolin-10-yl)amino)pyrimidin-2-yl)piperazin-1-yl)propanenitrile], the “HTRF avg pIC50 (1 nM)” value was 8.66. With `CN1CC2(C1)CN(c1ncc(Cl)c(Nc3ccc4c(c3)c3c(c(=O)n4C)OCC(F)(F)[C@H](C4CC4)N3)n1)C2` [Example 13g, (S)-10-((5-chloro-2-(6-methyl-2,6-diazaspiro[3.3]heptan-2-yl)pyrimidin-4-yl)amino)-2-cyclopropyl-3,3-difluoro-7-methyl-1,2,3,4-tetrahydro-[1,4]oxazepino[2,3-c]quinolin-6(7H)-one: formic acid (1:2)] the “HTRF avg pIC50 (1 nM)” value was 8.50. For “(S)-10-((5-chloro-2-((3S,5R)-3-hydroxy-5- methylpiperidin-1-yl)pyrimidin-4-yl)amino)-2,7-dimethyl-1,2,3,4- tetrahydro-[1,4]oxazepino[2,3-c]quinolin-6(7H)-one or (S)-10-((5- chloro-2-((3R,5S)-3-hydroxy-5-methylpiperidin-1-yl)pyrimidin-4- yl)amino)-2,7-dimethyl-1,2,3,4-tetrahydro- [1,4]oxazepino[2,3-c]quinolin-6(7H)-one [Example 12l]”, the “HTRF avg pIC50 (1 nM)” value was 6.99. In the case of `CNCCn1c(=O)c2c(c3cc(Nc4nc(N5C[C@@H](C)C(F)(F)[C@@H](C)C5)ncc4Cl)ccc31)N[C@@H](C1CC1)CCO2` [Example 17a, (R)-10-((5-chloro-2-((3S,5R)-4,4-difluoro-3,5-dimethylpiperidin-1-yl)pyrimidin-4-yl)amino)-2-cyclopropyl-7-(2-(methylamino)ethyl)-1,2,3,4-tetrahydro-[1,4]oxazepino[2,3-c]quinolin-6(7H)-one], the “HTRF avg pIC50 (1 nM)” value is reported as 7.15. In the case of `CCC1COc2c(c3cc(Nc4ccnc(Cl)c4C#N)ccc3n(C)c2=O)N1` (stereo not shown) [Example 1l, 2-chloro-4-((2-ethyl-6-methyl-5-oxo-2,3,5,6-tetrahydro-1H-[1,4]oxazino[2,3-c]quinolin-9-yl)amino)nicotinonitrile], the “HTRF avg pIC50 (1 nM)” value is reported as 6.22. `Cn1c(=O)c2c(c3cc(Nc4ccnc(Cl)c4C#N)ccc31)NC(C1CC1)COC2=O` (stereo not shown) [Example 6c, 2-chloro-4-((2-cyclopropyl-7-methyl-5,6-dioxo-1,2,3,5,6,7-hexahydro-[1,4]oxazepino[6,5-c]quinolin-10-yl)amino)nicotinonitrile] was tested, and the “HTRF avg pIC50 (1 nM)” value was 6.71. For `Cn1c(=O)c2c(c3cc(Nc4nc(N5CCc6ncnc(O)c6C5)ncc4Cl)ccc31)N[C@@H](C1CC1)C(F)(F)CO2` [Example 13a, (S)-10-((5-chloro-2-(4-hydroxy-7,8-dihydropyrido[4,3-d]pyrimidin-6(5H)-yl)pyrimidin-4-yl)amino)-2-cyclopropyl-3,3-difluoro-7-methyl-1,2,3,4-tetrahydro-[1,4]oxazepino[2,3-c]quinolin-6(7H)-one], the “HTRF avg pIC50 (1 nM)” value was 8.68. With `C[C@@H]1CN(c2ncc(Cl)c(Nc3ccc4c(c3)c3c(c(=O)n4C)OCC(F)(F)[C@H](C4CC4)N3)n2)C[C@H](C)C1(F)F` [Example 12o, (S)-10-((5-chloro-2-((3S,5R)-4,4-difluoro-3,5-dimethylpiperidin-1-yl)pyrimidin-4-yl)amino)-2-cyclopropyl-3,3-difluoro-7-methyl-1,2,3,4-tetrahydro-[1,4]oxazepino[2,3-c]quinolin-6(7H)-one] the “HTRF avg pIC50 (1 nM)” value was 7.74. `C[C@H]1COC(=O)c2c(c3cc(Nc4nc(N5CCC(C(=O)N(C)C)CC5)ncc4Cl)ccc3n(C)c2=O)N1` [Example 8d, (S)-1-(5-chloro-4-((2,7-dimethyl-5,6-dioxo-1,2,3,5,6,7-hexahydro-[1,4]oxazepino[6,5-c]quinolin-10-yl)amino)pyrimidin-2-yl)-N,N-dimethylpiperidine-4-carboxamide] was tested, and the “HTRF avg pIC50 (1 nM)” value was 6.78. With `CC1CSc2c(c3cc(Nc4ccnc(Cl)c4C#N)ccc3n(C)c2=O)N1` (stereo not shown) [Example 1t, 2-chloro-4-((2,6-dimethyl-5-oxo-2,3,5,6-tetrahydro-1H-[1,4]thiazino[2,3-c]quinolin-9-yl)amino)nicotinonitrile] the “HTRF avg pIC50 (1 nM)” value was 6.00. `C[C@H]1C[C@@H](O)CN(c2ncc(Cl)c(Nc3ccc4c(c3)c3c(c(=O)n4C)OCC(F)(F)[C@H](C4CC4)N3)n2)C1` (single isomer, unassigned) [Example 13d, (S)-10-((5-chloro-2-((3R,5S)-3-hydroxy-5-methylpiperidin-1-yl)pyrimidin-4-yl)amino)-2-cyclopropyl-3,3-difluoro-7-methyl-1,2,3,4-tetrahydro-[1,4]oxazepino[2,3-c]quinolin-6(7H)-one or (S)-10-((5-chloro-2-((3S,5R)-3-hydroxy-5-methylpiperidin-1-yl)pyrimidin-4-yl)amino)-2-cyclopropyl-3,3-difluoro-7-methyl-1,2,3,4-tetrahydro-[1,4]oxazepino[2,3-c]quinolin-6(7H)-one] was tested, and the “HTRF avg pIC50 (1 nM)” value was 8.70. In the case of `C[C@H]1CCOc2c(c3cc(Nc4cc(C(=O)O)nc(Cl)c4C#N)ccc3n(C)c2=O)N1` [Example 2a, (S)-6-chloro-5-cyano-4-((2,7-dimethyl-6-oxo-1,2,3,4,6,7-hexahydro-[1,4]ox-azepino[2,3-c]quinolin-10-yl)amino)picolinic acid], the “HTRF avg pIC50 (1 nM)” value is reported as 7.26.

Same assay, conditions: HTRF avg pIC50 (1 nM), 1 nM Trx-6×His-BCL6, 300 nM BCOR-AF633 peptide, 2 hours incubation
In the case of `Cn1c(=O)c2c(c3cc(Nc4ccnc(Cl)c4C#N)ccc31)N[C@@H](C1CC1)COC2=O` [Example 6b, (S)-2-chloro-4-((2-cyclopropyl-7-methyl-5,6-dioxo-1,2,3,5,6,7-hexahydro-[1,4]oxazepino[6,5-c]quinolin-10-yl)amino)nicotinonitrile], the IC50 is reported as 166 nM.

Same assay, conditions: read-out: IC50 in the HTRF assay
`Cn1c(=O)c2c(c3cc(Nc4ccnc(Cl)c4C#N)ccc31)NC(C)(C)COC2=O` [2-chloro-4-((2,2,7-trimethyl-5,6-dioxo-1,2,3,5,6,7-hexahydro-[1,4]oxazepino[6,5-c]quinolin-10-yl)amino)nicotinonitrile] showed an IC50 of over 2500 nM. In the case of `CC(C)C1CCOc2c(c3cc(Nc4ccnc(Cl)c4C#N)ccc3n(C)c2=O)N1` (stereo not shown) [2-chloro-4-((2-isopropyl-7-methyl-6-oxo-1,2,3,4,6,7-hexahydro-[1,4]oxazepino[2,3-c]quinolin-10-yl)amino)nicotinonitrile], the IC50 is reported as over 2500 nM. With `COc1cnc(N2C[C@@H](C)C(F)(F)[C@@H](C)C2)nc1Nc1ccc2c(c1)c1c(c(=O)n2C)OCC[C@H](C2CC2)N1` [(R)-2-cyclopropyl-10-((2-((3S,5R)-4,4-difluoro-3,5-dimethylpiperidin-1-yl)-5-methoxypyrimidin-4-yl)amino)-7-methyl-1,2,3,4-tetrahydro-[1,4]oxazepino[2,3-c]quinolin-6(7H)-one] the IC50 was over 2500 nM.
